Experimental data taken from PMC4823785, “A Tricholoma matsutake Peptide with Angiotensin Converting Enzyme Inhibitory and Antioxidative Activities and Antihypertensive Effects in Spontaneously Hypertensive Rats” (Scientific Reports, 2016).
Where two headings read alike, the source gives them in different places. Values belong to the compound of their own block, whether it stands above or below them. Where no end group is shown, it is not given here.

Experiments:
ACE [1] = settings: cited from earlier work
ACE [2] = molecular target: T1, ACE (Oryctolagus cuniculus, UniProt P12822); assay: Assay of ACE inhibitory activity (spectrophotometric, HHL substrate); format: biochemical, rabbit; settings: chemically synthesized peptides; means ± S.D. of three determinations
T1 construct: ACE was prepared using fresh rabbit lungs according to the protocol reported by Hayakari et al; from tissue; host or cells: fresh rabbit lungs (supernatant of homogenate)
T1 sequence (P12822 34-1310): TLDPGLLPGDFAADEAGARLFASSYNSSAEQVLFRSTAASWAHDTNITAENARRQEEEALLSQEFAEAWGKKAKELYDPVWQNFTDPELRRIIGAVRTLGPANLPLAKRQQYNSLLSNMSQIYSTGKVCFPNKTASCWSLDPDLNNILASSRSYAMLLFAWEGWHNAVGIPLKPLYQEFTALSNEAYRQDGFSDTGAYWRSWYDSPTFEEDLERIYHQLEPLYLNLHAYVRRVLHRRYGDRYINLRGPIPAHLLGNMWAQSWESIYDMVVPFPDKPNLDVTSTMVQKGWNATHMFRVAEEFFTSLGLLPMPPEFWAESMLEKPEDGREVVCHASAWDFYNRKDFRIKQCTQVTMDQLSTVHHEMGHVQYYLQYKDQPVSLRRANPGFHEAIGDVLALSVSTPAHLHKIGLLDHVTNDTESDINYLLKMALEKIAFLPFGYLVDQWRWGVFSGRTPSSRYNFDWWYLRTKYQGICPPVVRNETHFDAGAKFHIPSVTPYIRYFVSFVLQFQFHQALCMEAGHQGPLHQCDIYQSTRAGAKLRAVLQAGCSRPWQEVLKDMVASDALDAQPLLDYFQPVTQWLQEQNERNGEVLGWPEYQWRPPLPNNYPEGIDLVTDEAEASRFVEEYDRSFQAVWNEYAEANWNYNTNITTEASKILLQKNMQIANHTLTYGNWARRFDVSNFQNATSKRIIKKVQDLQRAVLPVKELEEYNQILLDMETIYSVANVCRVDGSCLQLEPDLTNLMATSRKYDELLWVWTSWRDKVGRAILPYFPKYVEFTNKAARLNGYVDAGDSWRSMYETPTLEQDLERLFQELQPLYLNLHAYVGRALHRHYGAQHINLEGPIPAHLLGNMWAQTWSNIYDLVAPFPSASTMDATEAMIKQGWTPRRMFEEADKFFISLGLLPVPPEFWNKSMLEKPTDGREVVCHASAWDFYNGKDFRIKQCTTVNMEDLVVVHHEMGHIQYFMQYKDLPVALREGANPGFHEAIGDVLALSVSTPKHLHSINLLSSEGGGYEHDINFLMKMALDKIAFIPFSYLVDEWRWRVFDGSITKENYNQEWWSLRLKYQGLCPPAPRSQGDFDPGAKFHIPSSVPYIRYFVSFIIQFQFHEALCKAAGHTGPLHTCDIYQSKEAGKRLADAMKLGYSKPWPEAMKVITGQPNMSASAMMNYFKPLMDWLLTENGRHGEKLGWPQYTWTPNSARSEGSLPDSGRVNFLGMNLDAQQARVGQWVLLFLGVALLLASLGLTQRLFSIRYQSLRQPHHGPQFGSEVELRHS
Description: ACE was prepared using fresh rabbit lungs according to the protocol reported by Hayakari et al.[35] with some modifications. After washing with ice-cold 0.15 M NaCl, the rabbit lungs without connective tissues were cut up to small pieces and homogenized in 10 volumes of ice-old 0.1 M sodium borate buffer (pH 8.3) containing 0.25 M sucrose and 0.1 mM PMSF. The homogenate was centrifuged at 9,000 rpm for 40 min at 4 °C after dialysis at 4 °C overnight in 0.1 M sodium borate buffer (pH 8.3). The resulting supernatant was centrifuged at 9,000 rpm for 40 min at 4 °C again. The ACE activity in the supernatant was determined and the supernatant was aliquoted and then stored at −20 °C for further experiments.
The ACE inhibitory activity was assayed by using a spectrophotometric method following the protocol described by Cushman[36] with modifications. Briefly, an aliquot (20 μL) of the sample was mixed with 20 μL ACE and 150 μL 5 mM HHL in 0.1 M borate buffer (pH 8.3) containing 0.3 M NaCl. The reaction mixture was incubated at 37 °C for 30 min, and then the reaction was terminated by adding 500 μL 1 M HCl. The hippuric acid formed was extracted with 1.2 mL ethyl acetate and centrifuged at 4,000 rpm for 10 min. Then 800 μL of the upper organic phase was heat-evaporated at 95 °C for 35 min to remove ethyl acetate. The dried residue was dissolved in 800 μL distilled water and vortex mixed, and the absorbance was measured spectrophotometrically at 228 nm to estimate ACE inhibitory activity. ACE-inhibitory activity was calculated by using the equation 1: […]
where A was the absorbance of the solution containing ACE and inhibitor, B was the absorbance of solution containing ACE and inhibitor but terminated in advance, C was the absorbance of the solution containing ACE without inhibitor, and D was the absorbance of the solution containing ACE without inhibitor but terminated in advance. The concentration of the inhibitor required to inhibit 50% of the ACE activity under the above assay conditions was defined as IC50.

[3] = test system: spontaneously hypertensive rats; assay: Antihypertensive action in spontaneously hypertensive rats (SBP, tail-cuff); settings: SHRs, oral, 100 mg/kg BW, at 2 h
Description: All experiments were performed in accordance with the Regulations of Experimental Animal Administration issued by the State Committee of Science and Technology of the People’s Republic of China and also with the approval of the Animal Experimentation Ethics Committee of The Chinese University of Hong Kong which had been procured prior to the animal experiments. SHRs with systolic blood pressure (SBP) higher than 180 mmHg were randomly divided into six groups after acclimation for 1 week. During the acclimatization period prior to the test, the blood pressures of the rats were measured four times weekly. Each group containing four rats. […] The group treated with crude water extract of T. matsutake received the extract at two different concentrations: 200 mg/kg body weight and 400 mg/kg body weight. SBP was measured thrice at each of the following time points: 0, 0.5, 2, 4, 6 and 8 h after drug/sample administration, using a tail-cuff method with a programmable BP-100A electro-sphygmomanometer (Chengdu Taimeng Software Co., Ltd., Chengdu, China).

[4] = peptide from Hypsizygus marmoreus
[5] = peptide from Tricholoma giganteum
[6] = peptide from Pleurotus cystidiosus
[7] = mushroom species printed in the row: Tricholoma matsutake, ref not given

Compound: RLPSEFDLSAFLRA
IC50 (ACE [1]; peptide from P. cornucopiae): 280 nM | Mode of inhibitory of ACE (ACE [1]; peptide from P. cornucopiae): Competitive

Compound: PSSNK
IC50 (ACE [1]; peptide from Agaricus bisporus): 129000 nM | Mode of inhibitory of ACE (ACE [1]; peptide from Agaricus bisporus): Non- competitive

IC50 (ACE [2]): 1190 ± 260 nM
Compound: IISKIK [IISKIK]

Compound: LSMGSASLSP
IC50 (ACE [1]; [4]): 330 nM | Mode of inhibitory of ACE (ACE [1]; [4]): Non-competitive

IC50 (ACE [2]): 950 ± 120 nM
Compound: LLVTLKK [LLVTLKK]

IC50 (ACE [2]): 4020 ± 310 nM
Compound: ILSKLK [ILSKLK]

Compound: GQP
IC50 (ACE [1]; [5]): 130 nM | Mode of inhibitory of ACE (ACE [1]; [5]): Competitive

IC50 (ACE [2]): 400 ± 290 nM
Compound: WALKGYK [TMP, WALKGYK]

Compound: RIGLF
IC50 (ACE [1]; peptide from Agaricus bisporus): 116000 nM | Mode of inhibitory of ACE (ACE [1]; peptide from Agaricus bisporus): Competitive

Compound: GQGGP
IC50 (ACE [1]; peptide from Pholiota adiposa): 100 nM

IC50 (ACE [2]): 620 ± 420 nM
Compound: LIDKVVK [LIDKVVK]

Compound: GPSMR
IC50 (ACE [1]; [6]): 278000 nM | Mode of inhibitory of ACE (ACE [1]; [6]): Competitive

Compound: C[C@H](CS)C(=O)N1CCC[C@H]1C(=O)O [captopril]
maximum decrease in SBP [3]: 38 mm Hg

Compound: AHEPVK
IC50 (ACE [1]; [7]): 63000 nM | Mode of inhibitory of ACE (ACE [1]; [7]): Competitive | IC50 (ACE [1]; [6]): 62800 nM | Mode of inhibitory of ACE (ACE [1]; [6]): Competitive

Compound: RLSGQTIEVTSEYLFRH
IC50 (ACE [1]; peptide from P. cornucopiae): 560 nM | Mode of inhibitory of ACE (ACE [1]; peptide from P. cornucopiae): Non-competitive

Compound: VIQKYP
IC50 (ACE [1]; peptide from Grifola frondosa): 120 nM | Mode of inhibitory of ACE (ACE [1]; peptide from Grifola frondosa): Competitive
